# Data reported in US20220153746A1, “NITROGEN OXIDE-DONATING PDE-5 AND/OR PDE-6 INHIBITOR COMPOUNDS, AND USES THEREOF” (ILDONG PHARMACEUTICAL CO., LTD., priority 2020, published 2022).
# Values joined by “and” are separate entries in the source; they are usually repeats but may differ in a detail not shown here. Identical values can stand only once. Like-named read-outs stand apart in the source and are kept apart here.
# Assay: TD Phase (Groups 1 and 3): plasma and ocular tissue concentrations and pharmacokinetics of Compound 18 and its metabolite Compound 4 after once daily ocular instillation of Compound 18 nanosuspension for 7 days
# Assay type: in vivo, New Zealand white rabbits
# Conditions: for Metabolite/Parent AUC Ratio: MW-corrected AUC of metabolite Compound 4 / parent Compound 18
# Source text: This example illustrates the procedures and results for the levels of Compound 18 and its metabolite Compound 4 in plasma and ocular tissues of normotensive rabbits following ocular instillation of Compound 18 once daily for 7 consecutive days.
# Twenty five (25) male New Zealand white rabbits were divided into 5 groups of varying amounts of animals per group.
# The Test article, Compound 18 was formulated as a 2% nanosuspension in DI water containing 0.2% PS80 (polyoxyethylenesorbitan, monooleate (Tween 80)) and 0.4% HPMC (hydroxypropylmethylcellulose) at pH 6.77. Referred to herein as “Compound 18 nanosuspension.”
# The study consisted of three groups (Groups 1-3) of 19 male rabbits (NZW) that underwent once daily morning ocular installation (1 eyedrop) for 7 consecutive days (Day 0-6). Groups 4-5 each consisted of 3 male rabbits (NZW) that were not dosed.
# Blood samples (1 mL) were collected from the jugular vein at the intervals set out below for each group. The samples were then inverted several times following collection and held on wet ice until centrifuged. Samples were centrifuged within 60 minutes of collection under refrigeration (set at 5° C. for 10 minutes at 2000 g.
# Group 1 (Pilot Study, terminal blood collection): blood was collected from 3 animals at 1 hour post day 7 dose of Compound 18 nanosuspension.
# Group 3 (TD Phase, terminal blood collection): blood was collected from 3 animals at 0.5 hour, 3 animals at 2 hours, 3 animals at 4 hours, and 3 animals at 8 hours post day 7 dose of Compound 18 nanosuspension.
# Group 1 (Pilot Study): 3 animals were terminated at 1 hour post Day 7 dose of Compound 18 nanosuspension. Following blood collection and termination, ocular tissues (aqueous humor, vitreous humor, cornea, iris/ciliary body, lens, optic nerve, retina, sclera/choroid, and trabecular meshwork) were collected from each animal and the tissue weights were recorded. Note: sclera and choroid were collected together. Iris and ciliary body were collected together.
# Group 3 (TD Phase): 3 animals were terminated at 0.5 hour, 3 animals at 2 hours, 3 animals at 4 hours, and 3 animals at 8 hours post Day 7 dose of Compound 18 nanosuspension. Following blood collection and termination, ocular tissues (aqueous humor, vitreous humor, cornea, iris/ciliary body, lens, optic nerve, retina, sclera/choroid, and trabecular meshwork) were collected from each animal and the tissue weights were recorded. Note: sclera and choroid were collected together. Iris and ciliary body were collected together.
# Plasma and tissue samples from treated animals (Groups 1-3) were analyzed for Compound 18 and its metabolite Compound 4 concentrations by LC-MS/MS.
# Pharmacokinetic analysis was conducted using WinNonlin Version 6.2.1 (Pharsight, Mountain View, Calif.), operating as a validated software system. Noncompartmental analysis was conducted using the extravascular administration model for ocular instillation dosing.
# The peak plasma and ocular tissue concentration, time to achieve peak plasma and ocular tissue concentration, half-life, and area under the plasma and ocular tissue concentration-time curve (Cmax, Tmax, T1/2, and AUC) were calculated from the TD phase combined with the pilot study mean animal plasma and ocular tissue concentrations for each sampling time/dose group for Compound 18 and its metabolite Compound 4.
# BA Assay: Quantitation Range 0.05 to 100 ng/mL for Compound 18, 0.15 to 100 ng/mL for Compound 4.
# 3. Pipet 50 μL of each type of pre-spiked ocular tissue samples (AH/VH) for QC samples, 50 μL of incurred aqueous humor, and vitreous humor sample (if applicable) into a 96 well plate.
# Ocular Tissues Homogenate Preparation: Incurred rabbit ocular tissues were weighed in Genogrinder tubes (plastic tubes with small beads) at the time of removal from the animal and stored frozen (<−70° C.) until analysis. The rabbit incurred ocular tissues were thawed on wet ice. […]
# [1] = TD Phase, Group 1, 1 h, individual animals
# [2] = TD Phase, Group 3, 0.5 h, individual animals
# [3] = TD Phase, Group 3, 2 h, individual animals
# [4] = TD Phase, Group 3, 8 h, individual animals
# [5] = male, New Zealand white, rabbit, topical or ocular, 0.8 mg/kg/day, aqueous humor, Day 7, from mean concentrations
# [6] = male, New Zealand white, rabbit, topical or ocular, 0.8 mg/kg/day, cornea, Day 7, from mean concentrations
# [7] = male, New Zealand white, rabbit, topical or ocular, 0.8 mg/kg/day, iris/ciliary body, Day 7, from mean concentrations
# [8] = male, New Zealand white, rabbit, topical or ocular, 0.8 mg/kg/day, lens, Day 7, from mean concentrations
structure (smiles),measurement,setting,value
"CCCc1nn(C)c2c(=O)[nH]c(-c3cc(S(=O)(=O)N4CC(CCCO)C4)ccc3OCC)nc12 [Compound 4, 5-(2-ethoxy-5-((3-(3-hydroxypropyl)azetidin-1-yl)sulfonyl)phenyl)-1-methyl-3-propyl-1,6-dihydro-7H-pyrazolo[4,3-d]pyrimidin-7-one]",Metabolite/Parent AUC Ratio,"Aqueous Humor, Day 7",21700
same,AUC0-8,"Cornea, Day 7, Compound 18 0.8 mg/kg ocular instillation once daily, Groups 1 and 3",10096 ng·h/g
same,Metabolite/Parent AUC Ratio,"Cornea, Day 7",52.7
same,AUC0-8,"Iris/Ciliary Body, Day 7, Compound 18 0.8 mg/kg ocular instillation once daily, Groups 1 and 3",1795 ng·h/g
same,Metabolite/Parent AUC Ratio,"Iris/Ciliary Body, Day 7",13.1
same,AUC0-8,"Lens, Day 7, Compound 18 0.8 mg/kg ocular instillation once daily, Groups 1 and 3",68.7 ng·h/g
same,AUC0-8,"Optic Nerve, Day 7, Compound 18 0.8 mg/kg ocular instillation once daily, Groups 1 and 3",159 ng·h/g
same,Metabolite/Parent AUC Ratio,"Plasma, Day 7",6.72
same,AUC0-8,"Retina, Day 7, Compound 18 0.8 mg/kg ocular instillation once daily, Groups 1 and 3",213 ng·h/g
same,AUC0-8,"Sclera/Choroid, Day 7, Compound 18 0.8 mg/kg ocular instillation once daily, Groups 1 and 3",1494 ng·h/g
same,Compound 4 Plasma Conc.,[1],0.412 ng/mL and 1.14 ng/mL and 0.839 ng/mL
same,Final Compound 4 Sclera/Choroid Conc.,[1],171 ng/g and 240 ng/g
same,Final Compound 4 Retina Conc.,"TD Phase, Group 1, 1 h, individual animals, BQL set to 0",25.6 ng/g and 90.7 ng/g and 34.8 ng/g
same,Compound 4 Sclera/Choroid Homogenate Conc.,"TD Phase, Group 1, 1 h, individual animals, homogenate dilution factor 8",21.4 ng/mL and 30.0 ng/mL
same,Compound 4 Plasma Conc.,[2],1.03 ng/mL and 0.812 ng/mL
same,Final Compound 4 Sclera/Choroid Conc.,[2],154 ng/g and 142 ng/g and 331 ng/g
same,Compound 4 Sclera/Choroid Homogenate Conc.,"TD Phase, Group 3, 0.5 h, individual animals, homogenate dilution factor 8",19.3 ng/mL and 17.7 ng/mL and 41.4 ng/mL
same,Compound 4 Plasma Conc.,[3],BQL (BQL = Below lower limit of quantitation (0.0500 ng/mL for Compound 18 and 0.150 ng/mL for Compound 4))
same,Final Compound 4 Sclera/Choroid Conc.,[3],121 ng/g and 234 ng/g and 88.0 ng/g
same,Final Compound 4 Retina Conc.,"TD Phase, Group 3, 2 h, individual animals, BQL set to 0",118 ng/g and 23.4 ng/g and 11.4 ng/g
same,Compound 4 Sclera/Choroid Homogenate Conc.,"TD Phase, Group 3, 2 h, individual animals, homogenate dilution factor 8",15.1 ng/mL and 29.2 ng/mL and 11.0 ng/mL
same,Compound 4 Retina Homogenate Conc.,"TD Phase, Group 3, 2 h, individual animals, homogenate dilution factor 20 (164 for animal 207671)",0.719 ng/mL and 1.17 ng/mL and 0.568 ng/mL
same,Compound 4 Plasma Conc.,"TD Phase, Group 3, 4 h, individual animals",BQL (BQL = Below lower limit of quantitation (0.0500 ng/mL for Compound 18 and 0.150 ng/mL for Compound 4))
same,Final Compound 4 Retina Conc.,"TD Phase, Group 3, 4 h, individual animals, BQL set to 0",16.7 ng/g and 34.6 ng/g and 14.0 ng/g
same,Compound 4 Retina Homogenate Conc.,"TD Phase, Group 3, 4 h, individual animals, homogenate dilution factor 20",0.835 ng/mL and 1.73 ng/mL and 0.702 ng/mL
same,Compound 4 Plasma Conc.,"TD Phase, Group 3, 8 h, Mean, BQL set to 0",BQL (BQL = Below lower limit of quantitation (0.0500 ng/mL for Compound 18 and 0.150 ng/mL for Compound 4))
same,Compound 4 Plasma Conc.,[4],BQL (BQL = Below lower limit of quantitation (0.0500 ng/mL for Compound 18 and 0.150 ng/mL for Compound 4))
same,Compound 4 Vitreous Humor Conc.,[4],BQL (BQL = Below lower limit of quantitation (0.0500 ng/mL for Compound 18 and 0.150 ng/mL for Compound 4))
same,Final Compound 4 Retina Conc.,"TD Phase, Group 3, 8 h, individual animals, BQL set to 0",8.90 ng/g and 0 ng/g and 8.34 ng/g
same,Compound 4 Retina Homogenate Conc.,"TD Phase, Group 3, 8 h, individual animals, homogenate dilution factor 20",BQL^a (BQL = Below lower limit of quantitation (0.0500 ng/mL for Compound 18 and 0.150 ng/mL for Compound 4)) and 0.417 ng/mL
same,tissue of highest concentration,TD phase plasma and ocular tissues,highest in cornea
same,AUC0-8,"Trabecular Meshwork, Day 7, Compound 18 0.8 mg/kg ocular instillation once daily, Groups 1 and 3",533 ng·h/g
same,Metabolite/Parent AUC Ratio,"Vitreous Humor, Day 7",447
same,AUC0-8,"cornea, Day 7, from mean concentrations",10096 ng·h/g
same,AUC0-8,"iris/ciliary body, Day 7, from mean concentrations",1795 ng·h/g
same,AUC0-8,"lens, Day 7, from mean concentrations",68.7 ng·h/g
same,Metabolite/parent AUC ratio (Compound 4 vs Compound 18),"lens, TD phase",63.0
same,concentration at 0.5 h,"male, New Zealand white, rabbit, plasma, other: ocular instillation, 0.8 mg/kg/day, TD Phase, Group 3, 0.5 h, Mean, BQL set to 0, read-out: Compound 4 Plasma Conc.",1.02 ng/mL
same,concentration at 0.5 h,"male, New Zealand white, rabbit, plasma, other: ocular instillation, 0.8 mg/kg/day, TD Phase, Group 3, 0.5 h, individual animals, read-out: Compound 4 Plasma Conc.",1.22 ng/mL
same,concentration at 8 h,"male, New Zealand white, rabbit, retina homogenate, other: ocular instillation (eye drop), 0.798 mg/kg/day, TD Phase, Group 3, 8 h, individual animals, homogenate dilution factor 20, read-out: Compound 4 Retina Homogenate Conc.",0.445 ng/mL
same,concentration at 1 h,"male, New Zealand white, rabbit, retina, other: ocular instillation (eye drop), 0.798 mg/kg/day, TD Phase, Group 1, 1 h, Mean, read-out: Final Compound 4 Retina Conc.",50.2 ng/g
same,concentration at 2 h,"male, New Zealand white, rabbit, retina, other: ocular instillation (eye drop), 0.798 mg/kg/day, TD Phase, Group 3, 2 h, Mean, read-out: Final Compound 4 Retina Conc.",50.9 ng/g
same,concentration at 4 h,"male, New Zealand white, rabbit, retina, other: ocular instillation (eye drop), 0.798 mg/kg/day, TD Phase, Group 3, 4 h, Mean, read-out: Final Compound 4 Retina Conc.",21.8 ng/g
same,concentration at 8 h,"male, New Zealand white, rabbit, retina, other: ocular instillation (eye drop), 0.798 mg/kg/day, TD Phase, Group 3, 8 h, Mean, read-out: Final Compound 4 Retina Conc.",5.75 ng/g
same,concentration at 1 h,"male, New Zealand white, rabbit, sclera/choroid homogenate, other: ocular instillation (eye drop), 0.798 mg/kg/day, TD Phase, Group 1, 1 h, individual animals, homogenate dilution factor 8, read-out: Compound 4 Sclera/Choroid Homogenate Conc.",17 ng/mL
same,concentration at 1 h,"male, New Zealand white, rabbit, sclera/choroid, other: ocular instillation (eye drop), 0.798 mg/kg/day, TD Phase, Group 1, 1 h, Mean, read-out: Final Compound 4 Sclera/Choroid Conc.",182 ng/g
same,concentration at 1 h,"male, New Zealand white, rabbit, sclera/choroid, other: ocular instillation (eye drop), 0.798 mg/kg/day, TD Phase, Group 1, 1 h, individual animals, read-out: Final Compound 4 Sclera/Choroid Conc.",136 ng/g
same,concentration at 0.5 h,"male, New Zealand white, rabbit, sclera/choroid, other: ocular instillation (eye drop), 0.798 mg/kg/day, TD Phase, Group 3, 0.5 h, Mean, read-out: Final Compound 4 Sclera/Choroid Conc.",209 ng/g
same,concentration at 2 h,"male, New Zealand white, rabbit, sclera/choroid, other: ocular instillation (eye drop), 0.798 mg/kg/day, TD Phase, Group 3, 2 h, Mean, read-out: Final Compound 4 Sclera/Choroid Conc.",148 ng/g
same,Cmax,[5],124 ng/mL
same,Tmax,[5],1 h
same,half-life,[5],1.95 h
same,AUC(0-t),"male, New Zealand white, rabbit, topical or ocular, 0.8 mg/kg/day, aqueous humor, Day 7, from mean concentrations, read-out: AUC0-8",314 ng·h/mL
same,Cmax,[6],3600 ng/g
same,Tmax,[6],1 h
same,half-life,[6],2.63 h
same,Cmax,[7],980 ng/g
same,Tmax,[7],1 h
same,half-life,[7],2.11 h
same,Cmax,[8],18.1 ng/g
same,Tmax,[8],1 h
same,half-life,[8],2.25 h
